The results in this text go back to patent US20120108624A1, “TREATMENT OF DYSKINESIA RELATED DISORDERS” (priority 2009, published 2012).

Structures are written as SMILES. Structures can show the parent of a compound that is named as a salt.

The test system of series [1] is Sprague Dawley rats with unilateral 6-OHDA lesions. In words: Induction of dyskinesia model with naive 6-OHDA rats (AIMS). As to conditions: once daily s.c. for 14 days, scored up to day 12. It is filed as in vivo, rat. Here is the method:
Twenty male Sprague Dawley rats with unilateral 6-OHDA lesions were used to test induction of dyskinesia by compound 10 (administered subcutaneously; n=7; group 1) compared to L-DOPA/benserazide (6 mg/kg / 15 mg/kg subcutaneously; n=7; group 2) and apomorphine (1 mg/kg subcutaneously; n=6; group 3). Benserazide is a DOPA decarboxylase inhibitor which is unable to cross the blood-brain barrier; it is used to prevent metabolism of L-DOPA to dopamine outside the brain. Three weeks after 6-OHDA surgery, the animals were tested for their rotation response induced by 2.5 mg/kg amphetamine, which induces ipsilateral circling (amphetamine increases the level dopamine in the brain via the intact neurons on the unlesioned side causing the animals to rotate in the opposite direction as compared to their response to direct agonists such as L-DOPA and apomorphine that act predominantly on the lesioned side of the brain). […] Rats where then randomly allocated to the three treatment groups balancing the groups for the animals' rotation response on amphetamine.
Rats received drug for 14 consecutive days and were scored on days 1, 2, 3, 4, 5, 8, 10 and 12. […] Following this experiment all rats were given subcutaneous injections of compound 10 from day 15-19 in order to determine how Example I influenced the severity of dyskinesia seen in the apomorphine and L-DOPA groups. Dykinesia scoring was performed on day 19 of the experiment (corresponding to 5 days on compound 10).

Series [2] deals with rats with unilateral 6-OHDA lesions. In words: 6-OHDA rat model (rotation response). The settings on record: rotation in unilateral 6-OHDA rats; for D1/D2 ratio: MED and MED to overcome Nemonapride block. Type of series: in vivo. The source says:
Dopamine agonists can have activity at either the D1 receptors, the D2 receptors, or both. The rotation response in rats with unilateral 6-OHDA lesions can be used to assess compounds for their ability to stimulate both receptor types and induce rotation (Ungerstedt and Arbuthnott, Brain Res., 1970, 24, 485; Setler, et al. Eur. J. Pharmacol., 1978, 50(4), 419; and Ungerstedt, et al. “Advances in Dopamine Research” (Kohsaka, Ed.), Pergamon Press, 1982, Oxford, p. 219). 6-OHDA (6-hydroxydopamine) is a neurotoxin used by neurobiologists to selectively kill dopaminergic neurons at the site of injection in the brain in experimental animals. In the 6-OHDA model, the nigrostraital dopamine cells are destroyed on one side of the brain (unilateral) by injecting 6-OHDA into the median forebrain bundle, located in front of the substantia nigra. This unilateral injection combined with stimulation by dopamine agonists such as apomorphine will induce rotation behaviour as only one side of the brain is stimulated. Experiments consist of determining a minimum effective dose (MED) to induce rotation for the compound in question. Once a MED has been determined, a second experiment is performed to determine the MED of the compound to overcome Nemonapride block (MEDNemonapride). Nemonapride is a D2 antagonist that blocks the D2 receptor, therefore any observed rotations would be dependent upon activity at the D1 receptor. Finally, once the MEDNemonapride is known a third experiment is run using the MEDNemonapride dose and observing the effect of the D1 antagonist, SCH 23390 alone, the D2 antagonist, Nemonapride alone and finally, the effect of combined treatment with SCH 23390 and Nemonapride. […] This model was validated using apomorphine as the proof-of-principle compound for mixed D1/D2 agonists.
Dopamine agonists can have activity at either the D1 receptors, the D2 receptors, or both. The rotation response in rats with unilateral 6-OHDA lesions can be used to assess compounds for their ability to stimulate both receptor types and induce rotation (Ungerstedt and Arbuthnott, Brain Res. 24, 485 (1970); Setler, et al., Eur. J. Pharmacol., 50(4), 419 (1978); and Ungerstedt, et al., “Advances in Dopamine Research” (Kohsaka, Ed.), Pergamon Press, 1982, Oxford, p. 219). 6-OHDA (6-hydroxydopamine) is a neurotoxin used by neurobiologists to selectively kill dopaminergic neurons at the site of injection in the brain in experimental animals. In the 6-OHDA model the nigrostraital dopamine cells are destroyed on one side of the brain (unilateral) by injecting 6-OHDA into the median forebrain bundle, located in front of the substantia nigra. […] Once a MED has been determined, a second experiment is performed to determine the MED of the compound to overcome Nemonapride block (MEDNemonapride). […]

Series [3] shares this test system. The experiment in a line: Dyskinesia profile in rats with unilateral 6-OHDA lesions (summary statements). The settings on record: for induction of dyskinesias compared with L-DOPA and apomorphine / reduction of L-DOPA induced dyskinesias compared with D2 agonists (pramipexole): rats with unilateral 6-OHDA lesions. Type of series: in vivo, rat.
Series [4] can be described thus: Conversion into the active metabolite upon in-vivo administration.
Series [5] has as its system 'parkinsonian' rats (6-OHDA rats). In words: Dyskinesia rat model, Example 3 (AIMs, test drug vs. L-DOPA/benserazide). Type of series: in vivo. Here is the method:
A rat dyskinesia model reported in the literature (Lundblad, et al., Eur. J Neurosci., 2002, 15, 120) was used to examine the effects of the active metabolite vs. L-DOPA/benserazide with respect to dyskinesias that were assessed as abnormal involuntary movements (AIMs) in ‘parkinsonian’ rats.
0-180 min. Animals were scored for dyskinesias.
At days 1, 3, 5, 8 and 12, animals were scored according to AIM-scoring by recording dyskinesias using the Abnormal Involuntary Movement Scale (AIMS) as described previously (Lundblad, et al., Eur. J Neurosci., 2002, 15, 120). Days 15-26: Group A animals were treated with the test drug (as group B) instead of L-DOPA/benserazide. Day 15, 16, 17, 19, 22, 24 and 26: Animals scored according AIM-scoring.

For series [6], the system named is MPTP treated marmosets. In words: Anti-Parkinsonian effects in MPTP-treated common marmosets. As to conditions: dosed p.o. Type of series: in vivo, common marmoset. On the procedure:
(§1) The experiments were conducted using 6 MPTP treated marmosets (2.0 mg/kg daily for up to 5 consecutive days dissolved in sterile 0.9% saline solution). All the animals had previously been treated with L-DOPA (12.5 mg/kg p.o., plus carbidopa 12.5 mg/kg p.o.) administered daily for up to 30 days in order to induce dyskinesia. […] Domperidone was administered 60 min before any of the test compounds. Domperidone is an anti-dopaminergic drug that suppresses nausea and vomiting. Locomotor Activity was assessed using test cages that are comprised of 8 photo-electric switches comprised of 8 infra-red beams which are strategically placed in the cage and interruption of a beam is recorded as one count. […] The assessment of motor disability was performed by a trained observer blinded to the treatment.
as §1, with “antidopaminergic” for “anti-dopaminergic”
as §1, with “compounds.” for “compounds. Domperidone is an anti-dopaminergic drug that suppresses nausea and vomiting.”

Series [7] deals with 'parkinsonian' rats. In words: Dyskinesia rat model, Example 4 (AIMs, Compound 12 vs. L-DOPA/Benserazide). It is filed as in vivo. Here is the method:
A rat dyskinesia model reported in the literature (Lundblad, et al., Eur. J Neurosci., 2002, 15, 120) was used to examine the effects of Compound 12 vs. L-DOPA/Benserazide with respect to dyskinesias that were assessed as abnormal involuntary movements (AIMs) in ‘parkinsonian’ rats.
Throughout the study animals received L-DOPA/Benserazide (6 mg/kg and 15 mg/kg subcutaneous) or Compound 12 (group B) once daily at t=−20 min. 0-180 min. Animals were scored for dyskinesias. Days 1-14: All animals were dosed with L-DOPA/Benserazide (group A) or Compound 12 (group B).
At days 1, 3, 5, 8 and 12, animals were scored according to AIM-scoring by recording dyskinesias using the Abnormal Involuntary Movement Scale (AIMS) as described previously. Days 15-26: Group A animals were treated with Compound 12 (as group B) instead of L-DOPA/Benserazide. Day 15, 16, 17, 19, 22, 24 and 26: Animals scored according AIM-scoring.

In series [8] the test system is mouse model of severe dopamine depletion. In words: Superiority model (MPTP mice treated with AMPT, motility). It is filed as in vivo. As to conditions: AMPT 250 mg/kg s.c., last 1 hour of recorded data.
Method: On the day of the experiment, mice were treated with AMPT (250 mg/kg subcutaneously) and then returned to their home cages for 1.5 hours after which they were placed in individual cages in the motility unit. AMPT (alpha-methyl-p-tyrosine) is a drug that temporarily reduces brain catecholamine activity (in this case especially dopamine levels). […] Various dopaminergic compounds were tested for their ability to reverse the motility deficits produced in this model. […] Benserazide is a DOPA decarboxylase inhibitor which is unable to cross the blood-brain barrier; it is used to prevent metabolism of L-DOPA to dopamine outside the brain.
On the day of the experiment, mice were treated with AMPT (250 mg/kg subcutaneously) and then returned to their home cages for 1.5 hours after which they are placed in individual cages in the motility unit. AMPT (alpha-methyl-p-tyrosine) is a drug that temporarily reduces brain catecholamine activity (in this case especially dopamine levels). […] Various dopaminergic compounds are tested for their ability to reverse the motility deficits produced in this model. […] Benserazide is a DOPA decarboxylase inhibitor which is unable to cross the blood-brain barrier; it is used to prevent metabolism of L-DOPA to dopamine outside the brain.
On the day of the experiment, mice were treated with AMPT (250 mg/kg subcutaneously) and then returned to their home cages for 1.5 hours after which they were placed in individual cages in the motility unit. AMPT (alpha-methyl-p-tyrosine) is a drug that temporarily reduces brain catecholamine activity (in this case especially dopamine levels). […] Various dopaminergic compounds were tested for their ability to reverse the motility deficits produced in this model. […] Benserazide is a DOPA decarboxylase inhibitor which is unable to cross the blood-brain barrier; it was used to prevent metabolism of L-DOPA to dopamine outside the brain.

`CCCN1CCC[C@@H]2Cc3c(ccc(O)c3O)C[C@H]21` [Compound 10, (4aR,10aR)-1-Propyl-1,2,3,4,4a,5,10,10a-octahydro-benzo[g]quinoline-6,7-diol hydrobromide]: in series [1], the “dyskinesia scores (AIMS)” value is “about 30”. Moreover, in series [2], the duration of action entry is on record as “ca. 18 h”.

For `CCCN1CCC[C@@H]2Cc3c(ccc4c3OCO4)C[C@H]21` [Compound 11, (6aR,10aR)-7-n-Propyl-6,6a,7,8,9,10,10a,11-octahydro-1,3-dioxa-7-aza-cyclopenta[a]anthracene hydrochloride], in series [3] (rats lesioned with 6-OHDA), the “reversal of dyskinesias induced by L-DOPA/benserazide and apomorphine” value is given as “reversed dyskinesias”. In series [3], the “induction of dyskinesias compared with L-DOPA and apomorphine” value was “induce less dyskinesias than L-DOPA and apomorphine”; the “reduction of L-DOPA induced dyskinesias compared with D2 agonists (pramipexole)” value is “reduce L-DOPA induced dyskinesias more effectively than D2 agonists”. For the same compound, the “conversion into active metabolite (Compound 10)” value in series [4] is on record as “Convert into the Catechol-Containing Active Metabolite”. For the same compound, in series [5] (after eight days of once daily treatment, constant until day 12), the “dyskinesia scores (AIMS)” value is given as 2-4. Moreover, the “induction of dyskinesia compared with L-DOPA” value in series [5] (days 1-14) is “significantly less dyskinesia than L-DOPA”. Also, in series [5] (group A shifted from L-dopa/benserazide to the test drug, days 15-26), the “reduction of the dyskinesias induced by L-DOPA” value is “able to reduce the dyskinesias induced by L-DOPA”. In addition, in series [6], the “duration of reversal of motor disability compared to L-DOPA” value is “prolonged reversal of motor disability”; the “efficacy compared to L-DOPA” value is “as efficacious as L-DOPA”; the “locomotor activity and motor disability” value was “dose-related increases in locomotor activity and reversal of motor disability”. Also, in series [2], the D1/D2 ratio result is “about 2”.

As for `CCCN1CCC[C@@H]2CC3=C(CCCC3=O)C[C@H]21` [Compound 12, (4aR,10aR)-1-n-propyl-2,3,4,4a,5,7,8,9,10,10a-decahydro-1H-benzo[g]quinolin-6-one], in series [3], the “induction of dyskinesias compared with L-DOPA and apomorphine” value is “induces less dyskinesias than L-DOPA and apomorphine”; the “reduction of L-DOPA induced dyskinesias compared with D2 agonists (pramipexole)” value was “reduces L-DOPA induced dyskinesias more effectively than D2 agonists”. Also, the “dyskinesia scores (AIMS)” value in series [7] (after eight days of once daily treatment) was 10-25. In series [7] (compound 12 for 10 days after L-DOPA/benserazide), the “dyskinesia scores (AIMS) after shifting group A from L-DOPA/benserazide” value is on record as 30-35. For the same compound, the “induction of dyskinesia compared with L-DOPA” value in series [7] (days 1-14) is reported as “significantly less dyskinesia than L-DOPA”. In addition, the “reduction of the dyskinesias induced by L-DOPA” value in series [7] (group A shifted to compound 12, days 15-26) is given as “able to reduce the dyskinesias induced by L-DOPA”. Moreover, in series [4], the “conversion into active metabolite (Compound 10)” value is “Convert into the Catechol-Containing Active Metabolite”. Also, in series [6], the “duration of reversal of motor disability compared to L-DOPA” value is on record as “prolonged reversal of motor disability”; the “efficacy compared to L-DOPA” value is listed as “as efficacious as L-DOPA”; the “locomotor activity and motor disability” value is “dose-related increases in locomotor activity and reversal of motor disability”.

On to `N[C@@H](Cc1ccc(O)c(O)c1)C(=O)O` [L-DOPA], for which the “reversal of motility deficits / restoration of locomotion” value in series [8] was “able to reverse motility deficits”. Also, the “dyskinesia scores (AIMS)” value in series [1] is on record as “about 70”. For the same compound, the “locomotor activity and motor disability” value in series [6] is “increased locomotor activity and reversed motor disability”.

Regarding `CN1CCc2cccc3c2[C@H]1Cc1ccc(O)c(O)c1-3` [apomorphine], the “reversal of motility deficits / restoration of locomotion” value in series [8] is reported as “restored locomotion”; in series [8] (listed as Apomorphine), “able to reverse motility deficits”. The “dyskinesia scores (AIMS)” value in series [1] is “about 70”. Moreover, in series [2], the D1/D2 ratio result was “about 3”.

On to `CCCN(CCc1cccs1)[C@H]1CCc2c(O)cccc2C1` [rotigotine, reference compound], for which the D1 component result in series [2] was “could not be observed”.
